ChEMBL document CHEMBL1150645, “A new secosterol from the Indonesian octocoral Pachyclavularia violacea” (J Nat Prod, 2002)

Assays:
Format in all cases: functional, cell-based
[1] = system: P388; experiment: Cytotoxicity against mouse P388 cells
[2] = system: A549; experiment: Cytotoxicity against human A549 cells
[3] = system: HT-29; experiment: Cytotoxicity against human HT-29 cells
[4] = system: SK-MEL-28; experiment: Cytotoxicity against human SK-MEL-28 cells

Measured: IC50

CC(=O)O[C@@H]1C/C=C(/C)C[C@H]2O[C@H]3[C@@H]4[C@H]2C(C)=CC(=O)[C@@H]4[C@@H](C)CO[C@@]13C [PACHYCLAVULARIAENONE B]
> 1 µg/mL: all assays above

CC(C)[C@@H](C)CC[C@@H](C)[C@H]1CC[C@@H]([C@@H]2C[C@H]3O[C@]34C[C@@H](O)CC[C@]4(C)C2=O)[C@]1(C)CCO [SECOSTEROL]
> 1 µg/mL: all assays above
